Values joined by “and” are separate entries in the source; they are usually repeats but may differ in a detail not shown here. Equal values may be shown once.
Tests used:
BDF1 mice [1] = assay: Single-dose ip LD50 in BDF1 mice; format: in vivo, mouse; conditions: 30 days observation
Description: Single-dose ip LD50 values were determined in BDF1 mice for the indicated complexes.

[2] = tested on: L1210/CDDP (cisplatin resistant line of L1210 leukemia); assay: Antitumor activity vs cisplatin-resistant L1210 leukemia (L1210/CDDP) in mice; format: in vivo, mouse
Excerpt: Results of antitumor testing against the transplantable mouse tumors L1210 leukemia, cisplatin-resistant L1210 leukemia, B16 melanoma, Madison 109 lung carcinoma and colon 26 carcinoma are shown below in Tables 1 and 2. […]
(§1) The methods used to evaluate the platinum complexes for antitumor activity and toxicity in animals are summarized below. These methods have been published elsewhere in more detail (Rose, et al. Cancer Treat. Rep. 66: 135, 1982; Florczyk, et al, Cancer Treat. Rep. 66: 187, 1982).
(§2) The parent line of L1210 leukemia (L1210) was maintained in DBA/2 mice by ip transplantation of 10^5 cells at weekly intervals. […] B16 malenoma (B16) was maintained by sc transplant in C57BL/6 mice every two weeks. Madison 109 lung carcinoma (M109) and colon 26 carcinoma (C26) were maintained by sc transplant in BALB/c mice every two weeks.
(§3) The level and route of tumor inoculum, host, group size, and drug treatment schedule and route for each tumor type are summarized below in Table 6. Each complex was evaluated initially against L1210 at 4 dose levels per schedule selected on the basis of lethality data provided by the Wadley Institute. In subsequent experiments with the other tumors the complexes were evaluated at a minimum of 3 dose levels selected on the basis of maximum tolerated levels in the L1210 experiments. Cisplatin-treated groups and a saline-treated (or untreated) tumor control group were included in each experiment.
(§4) The L1210 experiments were terminated on Day 30 whereas the B16, C26 and M109 experiments were terminated on Day 60 (some C26 experiments were terminated on Day 75). Mice alive at the termination day were autopsied and considered cured if no tumor was visible. […] A complex was considered active if it produced a % T/C value ≥125.

BDF1 mice [3] = assay: Nephrotoxicity: effect on blood urea nitrogen (BUN) in BDF1 mice; conditions: for BUN↑, Mouse: effect relative to cisplatin
Description: The other compounds were in such short supply that they were tested for effects on BUN values using the optimum dose (O.D.) from the L1210 test for dose selection.
The toxicity studies were done in male BDF1 mice (25-29 gm) and castrated male Fitch ferrets (1-1.5 kg).
The complexes that were active against L1210 were evaluated for nephrotoxicity by determining their effects on blood urea nitrogen (BUN) levels in mice. Groups of 40-50 mice/experiment were bled from the retro-orbital plexus and individual BUN values determined by a modified urease method using a Centrifichem System 400. The test complex, or saline for controls, was given at several dose levels (5-10 mice/dose) in single ip injections. The highest dose of the complex usually corresponded to its LD50 value or 1.5 times its optimal single dose in the L1210 experiment. At least two lower doses were included to evaluate dose-related effects. The BUN values were measured 4 and 7 days after dosing. BUN values ≥30 mg% were considered indicative of drug-induced nephrotoxicity.

M109 carcinoma = assay: Antitumor activity vs ip M109 (Madison 109 lung) carcinoma in mice; format: in vivo, mouse; set-up: O.D.: unit not given here; conditions: for O.D.: ip M109 (2×; 4×); for Max. % T/C: ip M109 (2×; 4×): q3d × 2 or qd 1-4, ip, dying mice only; for Ratio of Max. % T/C Complex/cDDP: ip M109, relative to concomitant cisplatin
Excerpt: (§5) Results of antitumor testing against the transplantable mouse tumors L1210 leukemia, cisplatin-resistant L1210 leukemia, B16 melanoma, Madison 109 lung carcinoma and colon 26 carcinoma are shown below in Tables 1 and 2.
as §1, §2, §3, §4
8 q3d^a × 2 or qd 1-4, ip

BDF1 mice [4] = assay: Deaths (D.14) in the BUN test in BDF1 mice; format: in vivo, mouse
L1210 leukemia = assay: Antitumor activity vs transplantable L1210 leukemia (ip) in mice; format: in vivo, mouse; conditions: for Max % T/C: dying mice only; for OD (optimum dose): optimum dose from the L1210 test
Excerpt: The antitumor activities of the complexes provided by the present invention have been determined against L-1210 leukemia in the mouse and, for certain of the complexes, against other mouse tumor systems.
as §5
In Table 1 are shown the maximum % T/C values obtained for each platinum compound versus L1210 leukemia using both single and qd 1→5 dosing.
as §1, §2, §3, §4

B16 melanoma [5] = assay: Antitumor activity vs ip B16 melanoma in mice; format: in vivo, mouse; set-up: O.D.: unit not given here; conditions: for O.D.: ip B16 (3×; 9×); for Max. % T/C: ip B16 (3×; 9×): q4d × 3 or qd 1-9, ip, dying mice only; for Ratio of Max. % T/C Complex/cDDP: ip B16, relative to concomitant cisplatin
Excerpt: as §1, §2
The level and route of tumor inoculum, host, group size, and drug treatment schedule and route for each tumor type are summarized below in Table 6. Each complex was evaluated initially against L1210 at 4 dose levels per schedule selected on the basis of lethality data provided by the Wadley Institute.
as §4

B16 melanoma [6] = assay: Antitumor activity vs B16 melanoma, sc tumor implant with iv drug dosing; format: in vivo, mouse
Excerpt: ^b Sc tumor implant with iv drug dosing.
as §2, §3, §4

C26 carcinoma = assay: Antitumor activity vs ip C26 (colon 26) carcinoma in mice; format: in vivo, mouse; set-up: O.D.: unit not given here; conditions: for Max. % T/C: ip C26 (2×; 4×): q3d × 2 or qd 1-4, ip, dying mice only; for Ratio of Max. % T/C Complex/cDDP: ip C26, relative to concomitant cisplatin
Excerpt: as §5, §1, §2, §3, §4
8 q3d^b × 2 or qd 1-4, ip

ferret = assay: Emetic effects (and lethality) in the ferret; format: in vivo, castrated male Fitch ferrets
Description: Selected complexes were evaluated for emetic effects in ferrets. […] The time to the first emetic episode (retching and expulsion of vomitus) and the number of episodes were recorded. […] Subsequent test doses were selected based on the emetic response and lethality of the initial dose.

[7] = Solubility stated in the preparation examples
[8] = L1210, single dose Day 1, ip, (a), (b) determinations
[9] = L1210, single dose Day 1, ip, dose giving the Max % T/C, same order
[10] = Day 1, in intralipid plus ethanol
[11] = L1210, Day 1, in intralipid plus ethanol

Compound	LD50 (BDF1 mice [1]) [mg/kg/ip]	Cures/total ([2]; Day 1)	O.D. (optimal dose) ([2]; Day 1) [mg/kg/inj]	Max % T/C ([2]; Day 1, dying mice only) [%]	Incidence of BUN > 30 mg % (BDF1 mice [3]; 17 mg/kg ip)	Incidence of BUN > 30 mg % (BDF1 mice [3]; 22.5 mg/kg ip)	Incidence of BUN > 30 mg % (BDF1 mice [3]; 30 mg/kg ip)	BUN↑, Mouse (BDF1 mice [3])	O.D. (M109 carcinoma)	Max. % T/C (M109 carcinoma) [%]	Deaths D.14 (BDF1 mice [4]; 17 mg/kg ip)	Deaths D.14 (BDF1 mice [4]; 22.5 mg/kg ip)	Deaths D.14 (BDF1 mice [4]; 30 mg/kg ip)	O.D. (optimal dose) (L1210 leukemia; L1210, QD 1 → 5, ip) [mg/kg/inj]	Max % T/C (L1210 leukemia; L1210, QD 1 → 5, ip) [%]	Max % T/C (L1210 leukemia; [8])	O.D. (optimal dose) (L1210 leukemia; [9])	OD (optimum dose) (L1210 leukemia)	O.D. (B16 melanoma [5])	Max. % T/C (B16 melanoma [5]) [%]	further results
CCC(=O)C(=O)[O-].CCC(=O)C(=O)[O-].N[C@@H]1CCCC[C@H]1N.[Pt+2] (relative stereo) [Example 5, bis(2-ketobutyrato)trans(-)-1,2-diaminocyclohexane platinum(II)]	30	2/6	9	144	0/10	0/10	1/9	0	6	131	1/10	1/10	3/10	2.5	193	186% and 200%	10 mg/kg/inj and 9 mg/kg/inj	10 mg/kg/ip	4	163	–
CCCCB([O-])[O-].N[C@@H]1CCCC[C@H]1N.[Pt+2] (relative stereo) [Example 7, n-butylboronato trans(-)-1,2-diaminocyclohexane platinum(II)]	11.3	–	–	–	–	–	–	0	–	–	–	–	–	1	–	179%	3 mg/kg/inj	3.6 mg/kg/ip	1.2	120	Cures/total [2, 10]: 5/6; O.D. (optimal dose) [2, 10]: 8 mg/kg/inj; Max % T/C ([2]; Day 1, in intralipid plus ethanol, dying mice only): 427%; Incidence of BUN > 30 mg % (BDF1 mice [3]; 6.4 mg/kg ip): 0/10; Incidence of BUN > 30 mg % (BDF1 mice [3]; 8.5 mg/kg ip): 0/10; Incidence of BUN > 30 mg % (BDF1 mice [3]; 11.3 mg/kg ip): 0/10; Deaths D.14 (BDF1 mice [4]; 6.4 mg/kg ip): 0/10; Deaths D.14 (BDF1 mice [4]; 8.5 mg/kg ip): 0/10; Deaths D.14 (BDF1 mice [4]; 11.3 mg/kg ip): 0/10; O.D. (optimal dose) (L1210 leukemia; [11]): 6 mg/kg/inj; Max % T/C (L1210 leukemia; [11]): 236% and 217%
N.N.[Cl][Pt][Cl] [Cisplatin, reference compound]	–	–	–	–	–	–	–	–	–	–	–	–	–	–	–	–	–	8 mg/kg/ip	–	–	O.D. (B16 melanoma [6]): 6; Max. % T/C (B16 melanoma [6]; dying mice only): 152%; Max. % T/C (M109 carcinoma; listed as cDDP): 153% and 175% and 155% and 163% and 142%; Deaths D.14 (BDF1 mice [4]; 8 mg/kg ip, historical ranges, 20160 min): 0-40%; Deaths D.14 (BDF1 mice [4]; 10.5 mg/kg ip, historical ranges, 20160 min): 0-50%; Deaths D.14 (BDF1 mice [4]; 12 mg/kg ip, historical ranges, 20160 min): 20-100%; Deaths D.14 (BDF1 mice [4]; 14 mg/kg ip, historical ranges): 50-100%; Cures/total (C26 carcinoma; ip C26 (2×; 4×)): 2/8; Max. % T/C (C26 carcinoma; listed as cDDP): 176% and 163% and 144%; O.D. (C26 carcinoma; ip C26 (2×; 4×), listed as cDDP): 4 and 3 and 2.5; Max. % T/C (B16 melanoma [5]; listed as cDDP): 172% and 186% and 191% and 220% and 185% and 212% and 189%
N[C@@H]1CCCC[C@H]1N.[O]=[Mn](=[O])([O-])[O-].[Pt+2] [Example 8, manganato trans(-)-1,2-diaminocyclohexane platinum(II)]	31	–	8	181	0/9	–	–	0	–	–	1/10	–	–	2.5	293	214% and 186%	20 mg/kg/inj and 18 mg/kg/inj	20 mg/kg/ip	2	160	Incidence of BUN > 30 mg % (BDF1 mice [3]; 23 mg/kg ip): 0/7; Incidence of BUN > 30 mg % (BDF1 mice [3]; 31 mg/kg ip): 0/8; Deaths D.14 (BDF1 mice [4]; 23 mg/kg ip): 3/10; Deaths D.14 (BDF1 mice [4]; 31 mg/kg ip): 2/10; Emesis Episodes (ferret; 16 mg/kg iv): 15; Emesis onset in responding animals (ferret; 16 mg/kg iv): 16 min; No. With Emesis/No. tested (ferret; 16 mg/kg iv, 6 h observation): 1/1; acute lethality (ferret; ferret, 16 mg/kg iv): 44 min; Lethal dose (ferret; ferret, doses marked * = Lethal dose): 16 mg/kg iv
CC(C)CC(C)(N)CN.[O-]B([O-])O.[Pt+2] (stereo not shown) [Example 10, borato 1,2-diamino-2,4-dimethylpentane platinum(II)]	30	5/6	24	307	0/10	1/10	7/10	<	5	74	0/10	0/10	1/10	10	236	171% and 225%	20 mg/kg/inj and 24 mg/kg/inj	10-20 mg/kg/ip	9	174	Ratio of Max. % T/C Complex/cDDP (M109 carcinoma): .48; Solubility in methanol ([7]; methanol): soluble; Solubility in water [7]: soluble; O.D. (C26 carcinoma; ip C26 (2×; 4×)): 8; Max. % T/C (C26 carcinoma): 100%; Ratio of Max. % T/C Complex/cDDP (C26 carcinoma): .69; Ratio of Max. % T/C Complex/cDDP (B16 melanoma [5]): .82
phosphonoacetato trans(-)-1,2-diaminocyclohexane platinum(II) [Example 11]	20	2/6	24	240	–	–	0/5	–	10	114	–	–	0/5	10	207	179% and 225%	20 mg/kg/inj and 24 mg/kg/inj	20 mg/kg/ip	9	206	Incidence of BUN > 30 mg % (BDF1 mice [3]; 20 mg/kg ip): 0/5; Ratio of Max. % T/C Complex/cDDP (M109 carcinoma): .74; Deaths D.14 (BDF1 mice [4]; 20 mg/kg ip): 0/5; Solubility in alcohol ([7]; alcohol): insoluble; Solubility in water [7]: soluble; O.D. (C26 carcinoma; ip C26 (2×; 4×)): 8; Max. % T/C (C26 carcinoma): 116%; Ratio of Max. % T/C Complex/cDDP (C26 carcinoma): .81; Ratio of Max. % T/C Complex/cDDP (B16 melanoma [5]): .97
